Measurements: ChEMBL document CHEMBL3407472, “Multi-parameter optimization of aza-follow-ups to BI 207524, a thumb pocket 1 HCV NS5B polymerase inhibitor. Part 2: Impact of lipophilicity on promiscuity and in vivo toxicity” (Bioorg Med Chem Lett, 2015)

Key:
[1] = tested on: Hepatitis C virus; assay: Antiviral activity against Hepatitis C virus genotype 1b infected in human Huh cells assessed as inhibition of viral replication by RT-PCR-based replicon assay; assay type: functional, cell-based, Hepacivirus hominis
[2] = tested on: Hepatitis C virus; assay: Antiviral activity against Hepatitis C virus genotype 1a infected in human Huh cells assessed as inhibition of viral replication by RT-PCR-based replicon assay; assay type: functional, cell-based, Hepacivirus hominis; details: subtype 1a
[3] = Half life in human liver microsomes at 2 uM; assay type: ADME
[4] = Lipophilicity, log D of the compound at pH 7.4; assay type: physicochemical; details: buffer
[5] = Half life in rat liver microsomes at 2 uM; assay type: ADME
[6] = Half life in cynomolgous monkey liver microsomes at 2 uM; assay type: ADME, Macaca fascicularis; details: cynomolgus monkey
[7] = Half life in dog liver microsomes at 2 uM; assay type: ADME, Canis lupus familiaris
[8] = Cmax in rat at 5 mg/kg, po and 2 mg/kg, iv; assay type: ADME, organism-based; details: in vivo
[9] = Cmax in cynomolgous monkey at 5 mg/kg, po and 2 mg/kg, iv; assay type: ADME, organism-based, Macaca fascicularis; details: cynomolgus monkey, in vivo
[10] = Cmax in dog at 5 mg/kg, po and 2 mg/kg, iv; assay type: ADME, organism-based, Canis lupus familiaris; details: in vivo
[11] = Half life in cynomolgous monkey at 5 mg/kg, po and 2 mg/kg, iv; assay type: ADME, organism-based, Macaca fascicularis; details: cynomolgus monkey, in vivo
[12] = Half life in rat at 5 mg/kg, po and 2 mg/kg, iv; assay type: ADME, organism-based; details: in vivo
[13] = AUC in rat at 5 mg/kg, po and 2 mg/kg, iv; assay type: ADME, organism-based; details: plasma
[14] = AUC in cynomolgous monkey at 5 mg/kg, po and 2 mg/kg, iv; assay type: ADME, organism-based, Macaca fascicularis; details: cynomolgus monkey, plasma
[15] = AUC in dog at 5 mg/kg, po and 2 mg/kg, iv; assay type: ADME, organism-based, Canis lupus familiaris; details: plasma
[16] = Half life in dog at 5 mg/kg, po and 2 mg/kg, iv; assay type: ADME, organism-based, Canis lupus familiaris; details: in vivo
[17] = Volume of distribution at steady state in rat at 5 mg/kg, po and 2 mg/kg, iv; assay type: ADME, organism-based; details: in vivo, read-out: Vdss
[18] = Volume of distribution at steady state in cynomolgous monkey at 5 mg/kg, po and 2 mg/kg, iv; assay type: ADME, organism-based, Macaca fascicularis; details: cynomolgus monkey, in vivo, read-out: Vdss
[19] = Volume of distribution at steady state in dog at 5 mg/kg, po and 2 mg/kg, iv; assay type: ADME, organism-based, Canis lupus familiaris; details: in vivo, read-out: Vdss
[20] = Clearance in rat at 5 mg/kg, po and 2 mg/kg, iv; assay type: ADME, organism-based; details: in vivo
[21] = Clearance in cynomolgous monkey at 5 mg/kg, po and 2 mg/kg, iv; assay type: ADME, organism-based, Macaca fascicularis; details: cynomolgus monkey, in vivo
[22] = Clearance in dog at 5 mg/kg, po and 2 mg/kg, iv; assay type: ADME, organism-based, Canis lupus familiaris; details: in vivo
[23] = Bioavailability in rat at 5 mg/kg, po and 2 mg/kg, iv; assay type: ADME, organism-based; details: in vivo
[24] = Bioavailability in cynomolgous monkey at 5 mg/kg, po and 2 mg/kg, iv; assay type: ADME, organism-based, Macaca fascicularis; details: cynomolgus monkey, in vivo
[25] = Bioavailability in dog at 5 mg/kg, po and 2 mg/kg, iv; assay type: ADME, organism-based, Canis lupus familiaris; details: in vivo
[26] = Ratio of drug uptake in liver to plasma of rat at 5 mg/kg, po and 2 mg/kg, iv after 6 to 8 hrs; assay type: ADME, organism-based
[27] = Cmax in rat at 2 mg/kg, po each in 0.5% Methylcellulose and 0.3% Tween-80 and 1% N-methylpyrrolidone; assay type: ADME, organism-based; set-up: dose 2 mg/kg, route oral; details: in vivo
[28] = Lipophilicity, log D of the compound; assay type: physicochemical; details: octanol/water
[29] = molecular target: T1, Amine oxidase [flavin-containing] A (Homo sapiens, UniProt P21397); assay: Inhibition of MAO-A (unknown origin)
T1 sequence (P21397 whole entry): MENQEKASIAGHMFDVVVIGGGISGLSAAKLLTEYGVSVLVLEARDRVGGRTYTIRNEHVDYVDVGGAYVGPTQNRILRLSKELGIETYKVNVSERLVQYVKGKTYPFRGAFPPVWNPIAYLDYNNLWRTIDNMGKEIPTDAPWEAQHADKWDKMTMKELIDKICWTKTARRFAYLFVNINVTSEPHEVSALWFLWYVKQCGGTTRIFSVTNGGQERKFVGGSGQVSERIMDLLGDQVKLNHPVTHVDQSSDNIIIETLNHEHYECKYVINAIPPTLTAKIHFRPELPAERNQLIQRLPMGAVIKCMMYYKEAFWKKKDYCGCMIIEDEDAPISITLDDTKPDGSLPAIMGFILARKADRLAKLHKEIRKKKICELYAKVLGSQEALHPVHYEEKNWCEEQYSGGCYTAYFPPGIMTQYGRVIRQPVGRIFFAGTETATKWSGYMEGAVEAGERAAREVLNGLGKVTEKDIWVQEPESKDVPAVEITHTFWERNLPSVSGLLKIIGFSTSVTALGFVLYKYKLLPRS

[30] = molecular target: D(1A) dopamine receptor (Homo sapiens, UniProt P21728); assay: Inhibition of dopamine D1 receptor (unknown origin)
[31] = molecular target: T2, Cathepsin G (Homo sapiens, UniProt P08311); assay: Inhibition of cathepsin G (unknown origin)
T2 sequence (P08311 whole entry): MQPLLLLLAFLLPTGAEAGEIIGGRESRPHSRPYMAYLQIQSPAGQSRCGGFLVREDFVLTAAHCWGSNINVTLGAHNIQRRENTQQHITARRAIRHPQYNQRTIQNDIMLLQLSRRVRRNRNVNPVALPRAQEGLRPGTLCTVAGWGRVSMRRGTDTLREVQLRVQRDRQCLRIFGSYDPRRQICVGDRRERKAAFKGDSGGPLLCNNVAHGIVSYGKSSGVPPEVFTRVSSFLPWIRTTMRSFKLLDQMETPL

[32] = molecular target: 5-hydroxytryptamine receptor 2A (Homo sapiens, UniProt P28223); assay: Inhibition of serotonin 5-HT2A receptor (unknown origin)
[33] = molecular target: T3, Glucocorticoid receptor (Homo sapiens, UniProt P04150); assay: Inhibition of glucocorticoid receptor (unknown origin)
T3 sequence (P04150 whole entry): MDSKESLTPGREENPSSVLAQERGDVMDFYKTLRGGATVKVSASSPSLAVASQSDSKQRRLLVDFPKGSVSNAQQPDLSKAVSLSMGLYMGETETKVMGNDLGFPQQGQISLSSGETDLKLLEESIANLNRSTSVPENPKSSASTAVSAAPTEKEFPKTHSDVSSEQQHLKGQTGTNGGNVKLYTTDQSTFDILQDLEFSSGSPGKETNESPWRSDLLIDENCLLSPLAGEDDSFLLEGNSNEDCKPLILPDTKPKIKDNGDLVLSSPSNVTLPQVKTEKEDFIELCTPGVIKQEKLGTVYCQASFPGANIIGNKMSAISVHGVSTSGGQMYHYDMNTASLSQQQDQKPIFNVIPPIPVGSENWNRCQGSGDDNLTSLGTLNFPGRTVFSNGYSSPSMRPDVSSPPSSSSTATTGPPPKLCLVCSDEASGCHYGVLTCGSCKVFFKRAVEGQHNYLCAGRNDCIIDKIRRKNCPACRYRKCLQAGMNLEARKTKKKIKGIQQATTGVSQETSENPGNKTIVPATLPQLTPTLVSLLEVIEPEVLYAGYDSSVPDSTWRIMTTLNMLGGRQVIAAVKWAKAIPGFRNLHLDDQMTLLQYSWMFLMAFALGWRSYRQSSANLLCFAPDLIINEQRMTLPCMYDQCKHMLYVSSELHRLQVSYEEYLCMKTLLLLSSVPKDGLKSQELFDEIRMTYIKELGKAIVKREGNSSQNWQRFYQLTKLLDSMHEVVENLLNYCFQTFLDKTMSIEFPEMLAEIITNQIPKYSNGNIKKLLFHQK

[34] = molecular target: T4, Prostaglandin G/H synthase 2 (Homo sapiens, UniProt P35354); assay: Inhibition of COX2 (unknown origin)
T4 sequence (P35354 whole entry): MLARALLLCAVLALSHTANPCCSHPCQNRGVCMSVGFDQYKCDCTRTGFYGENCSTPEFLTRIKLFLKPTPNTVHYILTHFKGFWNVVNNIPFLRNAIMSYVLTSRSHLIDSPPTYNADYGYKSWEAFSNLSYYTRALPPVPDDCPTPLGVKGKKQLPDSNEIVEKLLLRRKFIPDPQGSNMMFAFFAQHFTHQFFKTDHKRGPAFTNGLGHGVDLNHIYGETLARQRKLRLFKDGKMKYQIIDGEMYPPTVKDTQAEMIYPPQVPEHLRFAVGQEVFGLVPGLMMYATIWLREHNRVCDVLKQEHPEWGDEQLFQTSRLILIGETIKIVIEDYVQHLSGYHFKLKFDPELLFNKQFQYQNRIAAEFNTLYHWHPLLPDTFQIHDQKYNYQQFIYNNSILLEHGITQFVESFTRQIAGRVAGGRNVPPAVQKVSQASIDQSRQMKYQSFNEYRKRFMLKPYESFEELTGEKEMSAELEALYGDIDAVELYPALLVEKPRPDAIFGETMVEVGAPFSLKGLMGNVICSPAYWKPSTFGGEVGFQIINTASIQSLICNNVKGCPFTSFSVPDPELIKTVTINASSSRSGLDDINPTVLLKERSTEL

[35] = molecular target: T5, Polyunsaturated fatty acid 5-lipoxygenase (Homo sapiens, UniProt P09917); assay: Inhibition of 5-LO (unknown origin)
T5 sequence (P09917 whole entry): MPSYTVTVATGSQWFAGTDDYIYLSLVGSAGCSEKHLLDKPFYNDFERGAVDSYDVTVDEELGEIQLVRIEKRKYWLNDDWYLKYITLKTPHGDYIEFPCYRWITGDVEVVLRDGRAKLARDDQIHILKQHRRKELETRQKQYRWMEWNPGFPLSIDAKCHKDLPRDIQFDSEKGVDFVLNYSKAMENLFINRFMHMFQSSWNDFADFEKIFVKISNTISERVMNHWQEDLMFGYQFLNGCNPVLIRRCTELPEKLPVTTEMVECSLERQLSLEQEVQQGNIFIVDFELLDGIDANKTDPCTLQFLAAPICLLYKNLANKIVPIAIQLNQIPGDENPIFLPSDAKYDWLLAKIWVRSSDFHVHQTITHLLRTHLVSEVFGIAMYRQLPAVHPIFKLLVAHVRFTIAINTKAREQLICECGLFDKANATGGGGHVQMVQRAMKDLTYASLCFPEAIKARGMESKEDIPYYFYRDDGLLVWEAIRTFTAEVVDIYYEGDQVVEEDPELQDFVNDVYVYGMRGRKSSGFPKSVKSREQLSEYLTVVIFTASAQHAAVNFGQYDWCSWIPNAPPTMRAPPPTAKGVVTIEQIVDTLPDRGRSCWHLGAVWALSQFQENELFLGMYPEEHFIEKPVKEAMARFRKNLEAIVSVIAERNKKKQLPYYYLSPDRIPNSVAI

[36] = molecular target: GABA-A receptor; agonist GABA site; assay: Inhibition of GABAA receptor (unknown origin); assay type: protein-complex assay, Homo sapiens
[37] = molecular target: T6, Alpha-2A adrenergic receptor (Homo sapiens, UniProt P08913); assay: Inhibition of alpha2A adrenergic receptor (unknown origin)
T6 sequence (P08913 whole entry): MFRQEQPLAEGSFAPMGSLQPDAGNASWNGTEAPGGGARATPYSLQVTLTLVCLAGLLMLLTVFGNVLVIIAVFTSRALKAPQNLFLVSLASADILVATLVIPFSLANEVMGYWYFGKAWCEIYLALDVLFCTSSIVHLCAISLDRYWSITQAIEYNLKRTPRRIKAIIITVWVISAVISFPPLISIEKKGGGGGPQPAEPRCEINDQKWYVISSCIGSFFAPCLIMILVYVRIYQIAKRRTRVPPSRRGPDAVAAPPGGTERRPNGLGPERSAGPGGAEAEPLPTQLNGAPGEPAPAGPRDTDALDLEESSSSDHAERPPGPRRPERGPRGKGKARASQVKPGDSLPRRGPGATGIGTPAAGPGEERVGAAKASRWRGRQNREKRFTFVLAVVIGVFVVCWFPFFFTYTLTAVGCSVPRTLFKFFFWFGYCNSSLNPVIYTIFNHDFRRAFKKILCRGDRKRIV

D(1A) dopamine receptor, sequence (P21728 whole entry): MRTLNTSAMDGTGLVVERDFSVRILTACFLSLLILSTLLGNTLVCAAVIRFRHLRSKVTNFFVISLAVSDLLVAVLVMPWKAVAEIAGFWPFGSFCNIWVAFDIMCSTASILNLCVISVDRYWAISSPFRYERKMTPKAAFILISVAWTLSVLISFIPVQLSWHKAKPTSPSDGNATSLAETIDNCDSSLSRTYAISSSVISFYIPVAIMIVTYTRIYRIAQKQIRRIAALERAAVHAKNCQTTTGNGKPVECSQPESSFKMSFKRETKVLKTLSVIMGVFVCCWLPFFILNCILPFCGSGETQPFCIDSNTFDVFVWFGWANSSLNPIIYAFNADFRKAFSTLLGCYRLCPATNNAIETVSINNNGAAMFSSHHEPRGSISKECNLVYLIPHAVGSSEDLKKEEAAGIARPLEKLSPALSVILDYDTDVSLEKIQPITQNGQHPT
5-hydroxytryptamine receptor 2A, sequence (P28223 whole entry): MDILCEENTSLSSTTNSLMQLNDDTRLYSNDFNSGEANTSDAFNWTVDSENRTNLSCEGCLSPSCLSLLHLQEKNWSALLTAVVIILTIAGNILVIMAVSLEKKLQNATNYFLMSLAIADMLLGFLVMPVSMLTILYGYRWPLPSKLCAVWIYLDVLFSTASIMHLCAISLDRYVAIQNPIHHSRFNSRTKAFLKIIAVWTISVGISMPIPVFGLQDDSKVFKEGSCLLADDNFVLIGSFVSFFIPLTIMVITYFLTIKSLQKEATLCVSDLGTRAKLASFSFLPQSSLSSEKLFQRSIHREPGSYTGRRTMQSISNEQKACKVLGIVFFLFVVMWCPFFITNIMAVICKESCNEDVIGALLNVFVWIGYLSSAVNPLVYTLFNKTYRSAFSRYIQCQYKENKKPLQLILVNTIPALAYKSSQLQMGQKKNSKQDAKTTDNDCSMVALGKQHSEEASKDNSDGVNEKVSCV

Structure (SMILES): CCOc1nc(NC(=O)C(C)(C)NC(=O)c2ccc3c(C4CCCC4)c(-c4ccc(F)cn4)n(C)c3c2)ccc1/C=C/C(=O)O
- EC50 [1]: 0.005 µM
- EC50 [2]: 0.023 µM
- half-life at 2 µM [3]: 1.5 h
- logD [4]: 3.5
- half-life at 2 µM [5]: 1.3 h
- half-life at 2 µM [6]: 0.217 h
- half-life at 2 µM [7]: 3.13 h
- Cmax [8]: 3.6 µM
- Cmax [9]: 0.44 µM
- Cmax [10]: 7.2 µM
- half-life [11]: 0.7 h
- half-life [12]: 2.8 h
- AUC [13]: 7.2 µM·h
- AUC [14]: 1.2 µM·h
- AUC [15]: 21 µM·h
- half-life [16]: 2.3 h
- Vd [17]: 1.43 L/kg
- Vd [18]: 0.4 L/kg
- Vd [19]: 0.48 L/kg
- clearance [20]: 13.1 mL/min/kg
- clearance [21]: 13.9 mL/min/kg
- clearance [22]: 4.6 mL/min/kg
- bioavailability [23]: 71%
- bioavailability [24]: 12%
- bioavailability [25]: 69%
- Kp [26]: 13.5
- Cmax [27]: 3.6 µM
- logD [28]: 3.5
- IC50 [29]: 1.3 µM
- IC50 [30]: 6 µM
- IC50 [31]: 6 µM
- IC50 [32]: 6 µM

Structure (SMILES): Cn1c(-c2ccccn2)c(C2CCCC2)c2ccc(C(=O)NC3(C(=O)Nc4ccc(/C=C/C(=O)O)cc4)CCC3)cc21 [BILB-1941]
- IC50 [29]: < 10 µM
- IC50 [30]: < 10 µM
- IC50 [33]: < 10 µM
- IC50 [34]: < 10 µM
- IC50 [31]: < 10 µM
- IC50 [35]: < 10 µM
- IC50 [36]: < 10 µM
- IC50 [37]: < 10 µM
